Data from BindingDB's records for doi:10.1016/j.bmcl.2016.03.009 (Toray Industries, 2016).

test: Agonist activity at human IP receptor in platelet rich plasma assessed as inhibition of ADP-induced platelet aggregation preincubated for 1 min followed by addition of ADP by aggregometry

Question: With O=C(O)COC1CCC(=CCN(C(=O)c2ccccc2)c2ccc(Cl)cc2)CC1 (stereo not given) as the compound, how does the IC50 read?
Answer: 0.32 µM

Question: For COc1ccc(N(CCN2CCC(OCC(=O)O)CC2)C(=O)c2ccccc2)cc1, which IC50 is on record?
Answer: 0.9 µM

Question: Which IC50 does the source give for Cc1ccc(N(CCN2CCC(OCC(=O)O)CC2)C(=O)c2ccccc2)c(C)c1 here?
Answer: > 1 µM

Question: Which IC50 does the source give for O=C(O)COc1ccc(CCN(C(=O)c2ccccc2)c2ccc(Cl)cc2)cc1 here?
Answer: 0.74 µM

Question: With O=C(O)COc1cccc2c1OCCN2CCN(C(=O)c1ccccc1)c1ccc(Cl)cc1 as the compound, how does the IC50 read?
Answer: 0.013 µM

Question: Which IC50 does the source give for O=C(O)COc1ccc(CCCN(C(=O)c2ccccc2)c2ccc(Cl)cc2)cc1 here?
Answer: 20 µM

Question: With O=C(O)COc1cccc(CCN(C(=O)c2ccccc2)c2ccc(Cl)cc2)c1 as the compound, how does the IC50 read?
Answer: > 30 µM

Question: For Cc1ccccc1N(CCN1CCC(OCC(=O)O)CC1)C(=O)c1ccccc1, which IC50 is on record?
Answer: > 1 µM

Question: With O=C(O)COc1ccc(CN(C(=O)c2ccccc2)c2ccc(Cl)cc2)cc1 as the compound, how does the IC50 read?
Answer: > 30 µM

Question: For CCc1ccc(N(CCN2CCC(OCC(=O)O)CC2)C(=O)c2ccccc2)cc1, which IC50 is on record?
Answer: 0.43 µM

Question: With CCCCc1ccc(N(CCN2CCC(OCC(=O)O)CC2)C(=O)c2ccccc2)cc1 as the compound, how does the IC50 read?
Answer: > 1 µM

Question: Which IC50 does the source give for Cc1cc(C)c(N(CCN2CCC(OCC(=O)O)CC2)C(=O)c2ccccc2)c(C)c1 here?
Answer: > 1 µM

Question: Which IC50 does the source give for O=C(O)COC1CCN(CCN(C(=O)c2ccccc2)c2ccc(N3CCCC3)cc2)CC1 here?
Answer: > 1 µM

Question: Which IC50 does the source give for O=C(O)COC1CCN(CCN(C(=O)c2ccccc2)c2ccccc2)CC1 here?
Answer: 3.2 µM

Question: Which IC50 does the source give for CCCc1ccc(N(CCN2CCC(OCC(=O)O)CC2)C(=O)c2ccccc2)cc1 here?
Answer: 1 µM

Question: Which IC50 does the source give for Cc1cccc(N(CCN2CCC(OCC(=O)O)CC2)C(=O)c2ccccc2)c1 here?
Answer: > 1 µM

Question: With CC(C)c1ccc(N(CCN2CCC(OCC(=O)O)CC2)C(=O)c2ccccc2)cc1 as the compound, how does the IC50 read?
Answer: > 1 µM

Question: With Cc1ccc(N(CCN2CCC(OCC(=O)O)CC2)C(=O)c2ccccc2)cc1 as the compound, how does the IC50 read?
Answer: 0.13 µM

Question: For O=C(O)COC1CCN(CCN(C(=O)c2ccccc2)c2ccc(Cl)cc2)CC1, which IC50 is on record?
Answer: 0.44 µM

Question: Which IC50 does the source give for O=C(O)COC1CCN(CCN(C(=O)c2ccccc2)c2ccc(Cl)cc2)C1 (stereo not given) here?
Answer: 23 µM
